Source: PMC10663516 (Scientific Reports, 2023)

How the values were obtained:
Daudi cells = experiment: Rituximab-induced ADCC, NK cell-driven lysis (Calcein-AM release); type: cell-based, human; details: 3 µg/mL rituximab, primary NK cells, 4 h; TL-895 0.1–10 µM, ibrutinib and acalabrutinib 0.3–30 µM
From the text: ADCC analysis was based on quantitation of Calcein-AM release by […] detection on a FLUOstar® Omega (BMG LABTECH).

Jeko-1 = experiment: Cell line-derived xenograft model of MCL; type: in vivo, mouse; details: Jeko-1 xenograft, nude mice, 25 mg/kg QD PO, 20 days
Method: All three compounds were formulated in a solution of 20% kleptose (hydroxypropyl β-cyclodextrin) in 50 mM citrate and administered QD PO during the treatment periods given for each model. […] Studies in the Jeko-1 mouse MCL model were performed at EMD Serono Research and Development Institute, Billerica, MA, USA. Six-to-eight-week old female nude mice (Crl:NU-Foxn1nu; Charles River Laboratories, Wilmington) were inoculated with Jeko-1 cells (obtained from ATCC) by s.c. injection (10 × 10^6 cells in 0.2 mL phosphate buffered saline with Matrigel). […] Tumor volumes were recorded twice weekly. Mean %∆T/∆C was calculated at the end of treatment as outlined above. Tumor volume was used as the measure of efficacy for statistical analyses of in vivo xenograft studies. Tumor volume data from individual studies were log-transformed and statistically analyzed using repeated measures analysis of covariance (RM-ANCOVA) to determine significant treatment effects, followed by post hoc Tukey’s test for multiple pairwise comparisons (all α = 0.05) using R software. Day 0 data were used only as covariates in the analyses because tumor measurements on that day were recorded before the first treatments were administered.

Granta519 = experiment: Cell line-derived xenograft model of MCL; type: in vivo, mouse; details: SCID mice, 25 mg/kg QD PO, 14 days
Method: (§1) All three compounds were formulated in a solution of 20% kleptose (hydroxypropyl β-cyclodextrin) in 50 mM citrate and administered QD PO during the treatment periods given for each model.
(§2) Maver-1, Granta519, and Mino mouse MCL studies were performed at Shanghai ChemPartner Co., Ltd, Shanghai, China. Five-to-six-week old female severe combined immune deficiency (SCID) mice (Vital River Lab Animal Technology Co., Ltd, Beijing, China) were inoculated with Maver-1, Granta519, or Mino cells (all obtained from ATCC) by subcutaneous (s.c.) injection (0.2 mL containing 5 × 10^7 cells/mL in a 1:1 suspension of medium:Matrigel).
(§3) […]. Tumor volumes were recorded three times per week. Tumor growth inhibition was expressed as the mean percentage treatment (T)/control (C) ratio [%∆T/∆C] and was calculated at the end of treatment.
(§4) Tumor volume was used as the measure of efficacy for statistical analyses of in vivo xenograft studies. Tumor volume data from individual studies were log-transformed and statistically analyzed using repeated measures analysis of covariance (RM-ANCOVA) to determine significant treatment effects, followed by post hoc Tukey’s test for multiple pairwise comparisons (all α = 0.05) using R software. Day 0 data were used only as covariates in the analyses because tumor measurements on that day were recorded before the first treatments were administered.

Maver-1 = experiment: Cell line-derived xenograft model of MCL; type: in vivo, mouse; details: Maver-1 xenograft, SCID mice, 25 mg/kg QD PO, 14 days
Method: as §1, §2, §3, §4

DLBCL PDX models = experiment: 21 DLBCL PDX models, overall tumor response; type: in vivo, mouse
Method: (§5) The research use of patient material in PDX models at Crown Bioscience, XenoSTART and EPO-GmbH was approved by the local Institutional Ethical Review Boards and the patients provided written informed consent. Molecular analysis was performed on samples from each model using the EdgeSeq DLBCL Cell of Origin Assay (HTG Molecular Diagnostics, Tucson, AZ, USA) to confirm ABC-GCB DLBCL subtype.
Stock mice inoculated with human DLBCL cancer tissues were euthanized by progressive hypoxemia with CO2 and tumors were harvested. […]
(§6) When the average tumor volume was within a pre-determined range (100–300 mm^3), mice were assigned to treatment groups to balance the mean starting tumor volumes (n = 5 for all models except LY13005, which was n = 3). […] Tumor volumes were recorded 2–3 times per week. Mean %∆T/∆C was calculated at the end of treatment as described above for MCL models.
as §4, with “administered. […]” for “administered.”

[1] = cited from earlier work
Mino = experiment: Cell line-derived xenograft model of MCL; details: SCID mice, 25 mg/kg QD PO, 27 days
primary CLL blasts = experiment: Growth inhibition of primary CLL blasts (Mosaic Spot Assay); type: cell-based; details: Homo sapiens, 96 h, 4 days
From the text: A cytotoxic dose of cisplatin acted as a positive control, with no drug treatment as a negative control.

ST949B/ABC = experiment: DLBCL PDX model; type: in vivo, mouse; details: 9 days, QD PO, TL-895 and ibrutinib 25 mg/kg, acalabrutinib 30 mg/kg
Method: as §1
For mean values > 0: %ΔT/ΔC=endtumorvolumetreatment-starttumorvolumetreatment/endtumorvolumecontrol-starttumorvolumecontrol×100
For mean values ≤ 0 (i.e. regression): %ΔT/ΔC=endtumorvolumetreatment-starttumorvolumetreatment/starttumorvolumecontrol×100
as §5
Stock mice inoculated with human DLBCL cancer tissues were euthanized by progressive hypoxemia with CO2 and tumors were harvested. Tumor fragments were used at three different contract research organizations for xenotransplantation into different mouse strains for the following models: (1) 6-week-old female nude (NMRI:nu/nu) or CB17-SCID mice (Javier Labs, France): Ly12638, Ly11212, and Ly13005 (Experimental Pharmacology and Oncology Berlin-Buch GmbH [EPO-GmbH], Germany); (2) 6–8-week-old female BALB/c nude or NOD SCID mice (Beijing HFK Bioscience Co., Ltd. Beijing, China): LY0257, LY2214, LY3604, LY2298, LY2264, LY2318, and LY2345 (Crown Bioscience Inc, Taicang, China); and (3) 6–12-week-old female CB-17 SCID mice (CB17/Icr-Prkdc^scid/IcrIcoCrl Charles River Laboratories, Wilmington, MA, USA): ST118B, ST949B, ST359, ST949, ST2761B, ST2963, ST1361, ST2078, ST1735B, ST2902, and ST3497 (XenoSTART, San Antonio, TX, USA).
as §6, §4

[2] = parameters: method as in PMID 29241979; details: phase 2 MCL study; cited from earlier work

Structure (SMILES) | Inhibition of the ADCC mechanism of rituximab (Daudi cells) | Tumor growth vs vehicle (Jeko-1) | Tumor growth vs vehicle (Granta519) | Tumor growth vs vehicle (Maver-1) | Tumor response rate (models with P < 0.05 versus vehicle) (DLBCL PDX models) [%] | Tumor growth vs vehicle (Mino) | inhibition at 0.008 µM (primary CLL blasts) [%] | inhibition at 0.04 µM (primary CLL blasts) [%] | inhibition at 0.2 µM (primary CLL blasts) [%] | inhibition at 1 µM (primary CLL blasts) [%] | inhibition at 5 µM (primary CLL blasts) [%] | inhibition at 25 µM (primary CLL blasts) [%] | IC50 (primary CLL blasts) [nM] | %ΔT/ΔC (ST949B/ABC) [%] | also measured
C=CC(=O)N1CCC[C@@H](n2nc(-c3ccc(Oc4ccccc4)cc3)c3c(N)ncnc32)C1 [Ibrutinib] | ADCC was inhibited by ibrutinib (0.3–30 µM) in a concentration-dependent manner | Neither TL-895 nor ibrutinib had any significant effects on tumor growth | Neither TL-895 nor ibrutinib had any significant effects on tumor growth | Neither TL-895 nor ibrutinib had any significant effects on tumor growth | 10 | Significant treatment effects were observed for TL-895 and ibrutinib versus vehicle | – | – | – | – | – | – | – | – | Area under the curve (AUC) ([1]; patients with MCL, ibrutinib 560 mg QD): 956 ng·h/mL
CC#CC(=O)N1CCC[C@H]1c1nc(-c2ccc(C(=O)Nc3ccccn3)cc2)c2c(N)nccn12 [Acalabrutinib] | neither TL-895 (0.1–10 µM) nor acalabrutinib (0.3–30 µM) inhibited the ADCC mechanism of rituximab at the lower, more clinically relevant, concentrations | – | – | – | 24 | – | 34 | 40 | 47 | 56 | 64 | 80 | ~200 | 103 | Exposure ([1]; MCL, acalabrutinib oral 100 mg BID): 1111 ng·h/mL; Adverse event: diarrhea [2]: 31%; Adverse event: fatigue [2]: 27%; Adverse event: headache [2]: 38%; Grade ≥ 3 adverse event: anemia [2]: 9%; Grade ≥ 3 adverse event: neutropenia [2]: 10%; Grade ≥ 3 adverse event: pneumonia [2]: 5%
C=CC(=O)N1CCC(F)(CNc2ncnc(N)c2-c2ccc(Oc3ccccc3)cc2)CC1 [TL-895] | neither TL-895 (0.1–10 µM) nor acalabrutinib (0.3–30 µM) inhibited the ADCC mechanism of rituximab at the lower, more clinically relevant, concentrations | Neither TL-895 nor ibrutinib had any significant effects on tumor growth | Neither TL-895 nor ibrutinib had any significant effects on tumor growth | Neither TL-895 nor ibrutinib had any significant effects on tumor growth | 24 | significantly inhibited tumor growth | 43 | 50 | 53 | 61 | 72 | 90 | ~200 | 39 | –
